# Values quoted from earlier work, collected in patent US11583521B2, “Long-acting injection dosage form of beta 3 adrenoreceptor agonists” (Jubilant Pharma Holdings Inc., priority 2020, dated 2023).
# How the values were obtained:
# [1] = neutral to acidic pH
# [2] = presence of food in the GI tract
compound,measurement,setting,value
"Nc1nc(CC(=O)Nc2ccc(CCNC[C@H](O)c3ccccc3)cc2)cs1 [Mirabegron, (R)-2-(2-aminothiazol-4-yl)-4′-{2-[(2-hydroxy-2 phenylethyl)amino]ethyl}acetanilide]",solubility in water,[1],soluble in water between neutral to acidic pH
same,"bioavailability, effect of food",[2],affected by the presence of food in the GI (Gastro-Intestinal) tract
